Test results as given in PubChem BioAssay (NCI).
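The compound was tested at five concentrations on cells cultured in 96-well plates, with a 48-hour exposure period. TGI: concentration producing complete growth inhibition.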

Tests used:
Test in all cases: NCI tumour cell line growth inhibition, 48 h
HCT-116 colon = test system: HCT-116 colon
KM20L2 colon = test system: KM20L2 colon
EKVX NSCLC = test system: EKVX NSCLC
T-47D breast = test system: T-47D breast
XF 498 CNS = test system: XF 498 CNS
U251 CNS = test system: U251 CNS
CAKI-1 renal = test system: CAKI-1 renal
PC-3 prostate = test system: PC-3 prostate
MDA-MB-231 breast = test system: MDA-MB-231 breast
HS 578T breast = test system: HS 578T breast
SF-268 CNS = test system: SF-268 CNS
M19-MEL melanoma = test system: M19-MEL melanoma
HOP-92 NSCLC = test system: HOP-92 NSCLC
SK-OV-3 ovarian = test system: SK-OV-3 ovarian
NCI-H522 lung = test system: NCI-H522 lung
P388/ADR leukemia = test system: P388/ADR leukemia
COLO 205 colon = test system: COLO 205 colon
SNB-75 CNS = test system: SNB-75 CNS
SN12K1 renal = test system: SN12K1 renal
HCT-15 colon = test system: HCT-15 colon
RXF 393 renal = test system: RXF 393 renal
UACC-257 melanoma = test system: UACC-257 melanoma
DMS 114 small cell lung = test system: DMS 114 small cell lung
SK-MEL-5 melanoma = test system: SK-MEL-5 melanoma
OVCAR-3 ovarian = test system: OVCAR-3 ovarian
MDA-MB-435 = test system: MDA-MB-435
TK-10 renal = test system: TK-10 renal
SK-MEL-28 melanoma = test system: SK-MEL-28 melanoma
CCRF-CEM leukemia = test system: CCRF-CEM leukemia
786-0 renal = test system: 786-0 renal
K-562 leukemia = test system: K-562 leukemia
DLD-1 colon = test system: DLD-1 colon
DU-145 prostate = test system: DU-145 prostate
SNB-19 CNS = test system: SNB-19 CNS
NCI/ADR-RES ovarian = test system: NCI/ADR-RES ovarian
SK-MEL-2 melanoma = test system: SK-MEL-2 melanoma
OVCAR-4 ovarian = test system: OVCAR-4 ovarian
SW-620 colon = test system: SW-620 colon
OVCAR-5 ovarian = test system: OVCAR-5 ovarian
NCI-H460 lung = test system: NCI-H460 lung
A549 NSCLC = test system: A549 NSCLC
ACHN renal = test system: ACHN renal
SF-539 CNS = test system: SF-539 CNS
NCI-H23 lung = test system: NCI-H23 lung
NCI-H226 lung = test system: NCI-H226 lung
UO-31 renal = test system: UO-31 renal
HOP-18 NSCLC = test system: HOP-18 NSCLC
MDA-N = test system: MDA-N
LOX IMVI melanoma = test system: LOX IMVI melanoma
OVCAR-8 ovarian = test system: OVCAR-8 ovarian
A498 renal = test system: A498 renal
UACC-62 melanoma = test system: UACC-62 melanoma
HCC-2998 colon = test system: HCC-2998 colon
HOP-62 NSCLC = test system: HOP-62 NSCLC
MOLT-4 leukemia = test system: MOLT-4 leukemia
DMS 273 small cell lung = test system: DMS 273 small cell lung
M14 melanoma = test system: M14 melanoma
SNB-78 CNS = test system: SNB-78 CNS
HT29 colon = test system: HT29 colon
KM12 colon = test system: KM12 colon
IGROV1 ovarian = test system: IGROV1 ovarian
HL-60(TB) leukemia = test system: HL-60(TB) leukemia
MCF7 breast = test system: MCF7 breast
BT-549 breast = test system: BT-549 breast
MALME-3M melanoma = test system: MALME-3M melanoma
P388 leukemia = test system: P388 leukemia
RPMI-8226 leukemia = test system: RPMI-8226 leukemia
SR leukemia = test system: SR leukemia
SF-295 CNS = test system: SF-295 CNS

SMILES: O=NN(CCCl)C(=O)NC1CCC(=O)NC1=O (centres undefined)
- TGI (HCT-116 colon): 605 µM
- TGI (KM20L2 colon): > 1250 µM
- TGI (EKVX NSCLC): 515 µM
- TGI (T-47D breast): 892 µM
- TGI (XF 498 CNS): 265 µM
- TGI (U251 CNS): 305 µM
- TGI (CAKI-1 renal): 659 µM
- TGI (PC-3 prostate): > 1250 µM
- TGI (MDA-MB-231 breast): 674 µM
- TGI (HS 578T breast): 1100 µM
- TGI (SF-268 CNS): 615 µM
- TGI (M19-MEL melanoma): 972 µM
- TGI (HOP-92 NSCLC): 377 µM
- TGI (SK-OV-3 ovarian): > 1010 µM
- TGI (NCI-H522 lung): 485 µM
- TGI (P388/ADR leukemia): 399 µM
- TGI (COLO 205 colon): 684 µM
- TGI (SNB-75 CNS): 396 µM
- TGI (SN12K1 renal): 348 µM
- TGI (HCT-15 colon): 846 µM
- TGI (RXF 393 renal): 583 µM
- TGI (UACC-257 melanoma): 975 µM
- TGI (DMS 114 small cell lung): 814 µM
- TGI (SK-MEL-5 melanoma): 273 µM
- TGI (OVCAR-3 ovarian): > 1160 µM
- TGI (MDA-MB-435): 442 µM
- TGI (TK-10 renal): 1050 µM
- TGI (SK-MEL-28 melanoma): 1030 µM
- TGI (CCRF-CEM leukemia): 304 µM
- TGI (786-0 renal): 377 µM
- TGI (K-562 leukemia): 595 µM
- TGI (DLD-1 colon): 1050 µM
- TGI (DU-145 prostate): 1060 µM
- TGI (SNB-19 CNS): 934 µM
- TGI (NCI/ADR-RES ovarian): 710 µM
- TGI (SK-MEL-2 melanoma): 405 µM
- TGI (OVCAR-4 ovarian): > 993 µM
- TGI (SW-620 colon): 270 µM
- TGI (OVCAR-5 ovarian): > 1210 µM
- TGI (NCI-H460 lung): 463 µM
- TGI (A549 NSCLC): 811 µM
- TGI (ACHN renal): > 1250 µM
- TGI (SF-539 CNS): 309 µM
- TGI (NCI-H23 lung): 842 µM
- TGI (NCI-H226 lung): 583 µM
- TGI (UO-31 renal): 1250 µM
- TGI (HOP-18 NSCLC): 1070 µM
- TGI (MDA-N): 791 µM
- TGI (LOX IMVI melanoma): 279 µM
- TGI (OVCAR-8 ovarian): 293 µM
- TGI (A498 renal): 470 µM
- TGI (UACC-62 melanoma): 192 µM
- TGI (HCC-2998 colon): > 1160 µM
- TGI (HOP-62 NSCLC): 505 µM
- TGI (MOLT-4 leukemia): 329 µM
- TGI (DMS 273 small cell lung): 634 µM
- TGI (M14 melanoma): 905 µM
- TGI (SNB-78 CNS): 864 µM
- TGI (HT29 colon): > 1250 µM
- TGI (KM12 colon): 578 µM
- TGI (IGROV1 ovarian): 1140 µM
- TGI (HL-60(TB) leukemia): 359 µM
- TGI (MCF7 breast): > 1190 µM
- TGI (BT-549 breast): 593 µM
- TGI (MALME-3M melanoma): 481 µM
- TGI (P388 leukemia): 256 µM
- TGI (RPMI-8226 leukemia): 617 µM
- TGI (SR leukemia): 674 µM
- TGI (SF-295 CNS): 331 µM
